Data set [1] concerns Ba/F3 EGFR-L858R-C797S (LC). The data set can be described thus: Cell proliferation assay (CellTiter-Glo), Ba/F3 LC. The data set is classed as cell-based. The note with it: Mus musculus, BaF3; Ba/F3 EGFR-L858R-C797S cells, 72 hour incubation, CTG readout. The method, boiled down:
(§1)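 Cells seeded overnight, then exposed 72 h at 37 °C, 5% CO2 to nine 3.16-fold dilutions (top final 10 µM, 0.1% DMSO), triplicate wells. Viability read by CellTiter-Glo luminescence, with a T0 plate read at dosing; IC50 (nM) by non-linear sigmoidal regression.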

Data set [2] deals with Ba/F3 EGFR-DEL19-T790M-C797S (DTC). Kind of data set: Cell proliferation assay (CellTiter-Glo), Ba/F3 DTC. To be noted: Ba/F3 EGFR-DEL19-T790M-C797S cells, 72 hour incubation, CTG readout; read-out: IC50 BaF3 DTC. The data set is classed as cell-based. The method in brief:
as §1

For data set [3], the system named is A431 WT. The data set can be described thus: Cell proliferation assay (CellTiter-Glo), A431 WT. The note with it: Homo sapiens, A-431; A431 WT cells, 72 hour incubation, CTG readout. Type of data set: cell-based. The method in brief: as §1
Data set [4] relates to Ba/F3 EGFR-DEL19-C797S (DC). Kind of data set: Cell proliferation assay (CellTiter-Glo), Ba/F3 DC. Type of data set: cell-based. To be noted: Mus musculus, BaF3; Ba/F3 EGFR-DEL19-C797S cells, 72 hour incubation, CTG readout. The method in brief: as §1
Data set [5] relates to Ba/F3 EGFR-L858R-T790M-C797S (LTC). The data set can be described thus: Cell proliferation assay (CellTiter-Glo), Ba/F3 LTC. To be noted: Mus musculus, BaF3; Ba/F3 EGFR-L858R-T790M-C797S cells, 72 hour incubation, CTG readout. The data set is classed as cell-based. The method in brief:
as §1

Data set [6] in a line: Pharmacokinetic experiment in mice. Type of data set: in vivo. The note with it: ICR mice; for AUC(0-t) / Cmax / half-life: male, mouse, single oral administration (PO), 10 mg/kg, plasma. The text has this: The purpose of this trial is to study the pharmacokinetic behavior of some compounds of the present invention, and the administration method is: Single oral administration (PO) to ICR mice.
The compounds used in this trial are from the compounds in the specific examples of the present invention and the listed positive compounds.
ICR mice male N=9 original source: Shanghai Sippr-Bk Lab Animal Co., Ltd.
The compounds are weighed and dissolved in the corresponding solution (10% PG + 10% Solutol® + 80% pH3 citrate buffer). The mixture is then shaken well and sonicated to prepare a 1 mg/mL stock solution. Nine mice are orally administered at a dose of 10 mg/kg (or IV 2 mg/kg) after an overnight fast.
About 90 µL of blood is collected via the submandibular vein per time point, heparin sodium anticoagulant is added, the sample is placed on ice after collection, and plasma is centrifuged within 1 hour (centrifugation conditions: 8,000 rpm, 6 minutes, 2-8°C). The blood collection timepoints are 0, 0.25, 0.5, 1, 2, 4, 6, 8 and 24 h. The samples are stored in a -20°C refrigerator.
The plasma sample is 40 µL, 160 µL of ice-cold acetonitrile containing internal standard is added, vortexed for 3 minutes, and centrifuged at 11,000 rpm for 5 minutes. 100 µL of the supernatant is taken and added to 100 µL of water, 5 µL of the sample is taken and injected into LC/MS/MS for analysis.

For `CCS(=O)(=O)C[C@H]1CCN(c2nn3c4cc(ncc24)Nc2ccnc(n2)-c2cnn(C)c2OCC2(CCCC2)C3)C1` [Example 35, (S)-3'-(3-((ethylsulfonyl)methyl)pyrrolidin-1-yl)-1'-met hylspiro(cyclopentane-1,6'-8-oxa-3-aza-4(6,1)-pyrazolo [4,3-c]pyridina-2(2,4)-pyrimidina-1(4,5)-pyrazolacyclooctaphane)], the IC50 was 2.2 nM in data set [1]; 0.7 nM in data set [2]; 345 nM in data set [3]; 0.9 nM in data set [4]; 1 nM in data set [5]. Further, in data set [6] (PO 10 mg/kg (IV 2 mg/kg)), the “Oral F” value stood at 81.5%. For the same molecule, in data set [6], the AUC(0-t) was determined as 5570 ng·h/mL. Besides, the Cmax in data set [6] stood at 1500 ng/mL. Besides, the half-life in data set [6] was 2.6 h.
In the case of `Cn1ncc2c1OCC1(CCCC1)Cn1nc(N3CC[C@H](CS(C)(=O)=O)C3)c3cnc(cc31)Nc1ccnc-2n1` [Example 34, (S)-1'methyl-3'-(3-((methylsulfonyl)methyl)pyrrolidin-1-yl)spiro(cyclopentane-1,6 '-8-oxa-3-aza-4(6,1)-pyrazolo[4,3-c]pyridina-2(2,4)-pyrimidina-1(4,5)-pyrazolacyclooctaphane)], the IC50 in data set [1] is 2.7 nM; in data set [2], 1.6 nM; in data set [3], 375 nM; in data set [4] it was 0.7 nM; in data set [5], 1.4 nM. Further, the AUC(0-t) in data set [6] was 2390 ng·h/mL. Besides, in data set [6], the highest concentration (Cmax) came out at 694 ng/mL. In data set [6], this molecule gave a half-life of 4.7 h.
Regarding `CCS(=O)(=O)C[C@@H]1CCN(c2nn3c4cc(ncc24)Nc2ccnc(n2)-c2cnn(C)c2OCC2(CCCC2)C3)C1` [Example 29, (R)-3' -(3-((ethylsulfonyl)methyl)pyrrolidin-1-yl)-1'-me thylspiro(cyclopentane-1,6' -8-oxa-3-aza-4(6,1)-pyrazolo[4,3-c]pyridina-2(2,4)-pyrimidina-1(4,5)-pyrazolacyclooctaphane)], the IC50 in data set [1] came out at 9.6 nM; in data set [2], 1.8 nM; in data set [3], 622 nM; in data set [4], 1.6 nM; in data set [5], 4 nM. Further, in data set [6], the AUC(0-t) worked out at 4540 ng·h/mL. In data set [6], this molecule came in with a Cmax of 1400 ng/mL. In data set [6], this molecule showed a half-life of 0.66 h.
With `C[C@H]1CCOc2c(cnn2C)-c2nccc(n2)Nc2cc3c(cn2)c(-c2ccc(CN4CCN(C)CC4)n2C)nn31` [Positive Compoun d, reference compound], the IC50 in data set [1] stood at 11.5 nM; in data set [2] it was 4.2 nM; in data set [3], 450 nM; in data set [4] it was 4.9 nM; in data set [5], 8 nM. Further, in data set [6], the AUC(0-t) was 204 ng·h/mL. Moreover, in data set [6], the highest level (Cmax) was 32.7 ng/mL. Further, in data set [6], the half-life was 4.8 h.
Take `CCCS(=O)(=O)C[C@H]1CCN(c2nn3c4cc(ncc24)Nc2ccnc(n2)-c2cnn(C)c2OCC2(CCCC2)C3)C1` [Example 42, (S)-3'-(3-((propylsulfonyl)methyl)pyrrolidin-1-yl)-1'-methylspiro(cyclopentane-1 ,6'-8-oxa-3-aza-4(6,1)-pyrazolo[4,3-c]pyridina-2(2,4)-pyrimidina-1(4,5)-pyrazolacyclooctaphane)]: the IC50 is 1.9 nM in data set [1]; 2.3 nM in data set [2]; 593 nM in data set [3]; 3.5 nM in data set [4]; 1.2 nM in data set [5]. In data set [6], this molecule came in with an AUC(0-t) of 4290 ng·h/mL. In addition, in data set [6], the highest concentration (Cmax) turned out to be 1060 ng/mL. This molecule also gave a half-life in data set [6] of 3 h.
With `COC(=O)N[C@@H]1CCN(c2nn3c4cc(ncc24)Nc2ccnc(n2)-c2cnn(C)c2OCC2(CCCC2)C3)C1` [Example 51, Methyl (R)-(1-(1'-methylspiro(cyclopentane-1,6'-8-oxa-3-aza-4 (6,1)-pyrazolo[4,3-c]pyridina-2(2,4)-pyrimidina-1(4,5)-pyrazolacyclooctaphane)-3'-yl)pyrrolidin-3-yl)carbamate], the IC50 is 17.6 nM in data set [1]; 10.1 nM in data set [2]; 424 nM in data set [3]; 15 nM in data set [4]; 9 nM in data set [5]. In addition, the AUC(0-t) in data set [6] was determined as 2690 ng·h/mL. Also, the Cmax in data set [6] was 596 ng/mL. Also, in data set [6], the half-life was 2.8 h.
For the molecule `Cn1ncc2c1OCC1(CCCCC1)Cn1nc(N3CC[C@H](CS(=O)(=O)C4CC4)C3)c3cnc(cc31)Nc1ccnc-2n1` [Example 41, (S)-3'-(3-((cyclopropylsulfonyl)methyl)pyrrolidin-1-yl)-1'-methylspiro(cyclohexane-1,6'-8-oxa-3-aza-4(6,1)-pyrazolo[4,3-c]pyridina-2(2,4) -pyrimidina-1(4,5)-pyrazolacyclooctaphane)], the IC50 in data set [1] is 12.9 nM; in data set [2], 5.2 nM; in data set [3], 564 nM; in data set [4] it was 15.9 nM; in data set [5], 3.1 nM. For the same molecule, in data set [6], the AUC(0-t) was found to be 7110 ng·h/mL. In addition, the highest level in data set [6] (Cmax) was 1920 ng/mL. In addition, in data set [6], the half-life was 2.3 h.
`CCS(=O)(=O)C[C@H]1CCN(c2nn3c4cc(ncc24)Nc2ccnc(n2)-c2cnn(C)c2OCC2(CCCCC2)C3)C1` [Example 37, (S)-1'-methyl-3'-(3-((ethylsulfonyl)methyl)pyrrolidin-1-yl)spiro(cyclohexane-1,6'-8-oxa-3-aza-4(6,1)-pyrazolo [4,3-c]pyridina-2(2,4)-pyrimidina-1(4,5)-pyrazolacyclooctaphane)]: the IC50 turned out to be 15.8 nM in data set [1]; 3.2 nM in data set [2]; 554 nM in data set [3]; 6.1 nM in data set [4]; 6.4 nM in data set [5]. In data set [6], this molecule came in with an AUC(0-t) of 10100 ng·h/mL. Also, the Cmax in data set [6] turned out to be 2070 ng/mL. In data set [6], this molecule showed a half-life of 3.1 h.
Turning to `CN1CCC(C#Cc2nn3c4cc(ncc24)Nc2ccnc(n2)-c2cnn(C)c2OCC2(CCCCC2)C3)CC1` [Example 3, 1'-methyl-3'-((1-methylpiperidin-4-yl)ethynyl)spiro(cyclohexane-1,6'-8-oxa-3-aza-4(6,1)-pyrazolo[4,3-c]pyridina-2(2,4)-pyrimidina-1(4,5)-pyrazolacyclooctaphane)], the IC50 stood at 30.6 nM in data set [1]; 6.8 nM in data set [2]; 439 nM in data set [3]; 19.4 nM in data set [4]; 10.4 nM in data set [5]. The same molecule showed an area under the curve AUC(0-t) in data set [6] of 3920 ng·h/mL. In addition, in data set [6], the concentration peaked (Cmax) at 307 ng/mL. In addition, in data set [6], the half-life is 5.6 h.

The values above are taken from patent EP4563579A1, “MACROCYCLIC EGFR INHIBITOR, AND PREPARATION METHOD THEREFOR AND PHARMACEUTICAL USE THEREOF” (Abbisko Therapeutics Co., Ltd., priority 2022, dated 2024).
